Data published in patent publication US20250188092A1, “RIFAMYCIN ANALOGS” (THE REGENTS OF THE UNIVERSITY OF MICHIGAN, priority 2021, published 2025).
Where two headings read alike, the source gives them in different places.

Tests used:
[1] = target: T1, E. coli WT RNAP (Escherichia coli, UniProt P0A8V2); assay: biochemical
T1 construct: made in house

[2] = target: T2, E. coli D516V (RIF^R) RNAP (Escherichia coli, UniProt P0A8V2, D516V); assay: biochemical
T2 construct: made in house

[3] = target: T3, E. coli S531L (RIF^R) RNAP (Escherichia coli, UniProt P0A8V2, S531L); assay: biochemical
T3 construct: made in house

[4] = tested on: VERO cells (ATCC CRL-81); assay: Vero cell toxicity; type: cell-based; conditions: Chlorocebus sabaeus, Vero; 72 hours exposure
Description: Cytotoxicity for a mammalian cell line was determined by exposing VERO cells (ATCC CRL-81) to serial dilutions of test compounds for 72 hours, followed by addition of resazurin and measurement of fluorescence after 4 hours incubation (Choules, et al., Antimnicrob. Agents Chemother. 2019, 63, e02204-02218).

[5] = tested on: MTB H37Rv ATCC 27294; assay: MIC, microplate Alamar Blue assay (MABA); type: cell-based, Mycobacterium tuberculosis; conditions: for MIC: Mycobacterium tuberculosis, MTB H37Rv ATCC 27294, microplate Alamar Blue assay, lowest concentration giving ≥90% reduction in fluorescence, read-out: MIC90 MABA
[6] = tested on: M. tuberculosis H37Rv; assay: Minimum bactericidal concentration (MBC, CFU Assay); type: cell-based, Mycobacterium tuberculosis; conditions: for MBC: Mycobacterium tuberculosis, 168 h, Day 7, M. tuberculosis H37Rv, ≥99% reduction in colony forming units, read-out: MBC99 Day 7 (CFU Assay) MBC99
[7] = tested on: DPX2 cells; conditions: for DPX2 Viability @ 6.25 μM: 24 h; for DPX2 Viability @ 25 μM: human
[8] = CFU Assay MBC99 relative to rifampin (RMP = 1)

SMILES | IC50 [1] | IC50 [2] | IC50 [3] | IC50 [4] | MIC90 MABA Rel to RMP [5] | MIC [5] | MBC99 Day 7 (CFU Assay) MBC99 Rel to RMP [6, 8] | MBC [6] | DPX2 Viability @ 6.25 μM [7] | DPX2 Viability @ 25 μM [7] | MBC99 Day 7 (CFU Assay) MBC99 Rel to RMP [6]
CO[C@H]1/C=C/O[C@@]2(C)Oc3c(C)c(O)c4c(=O)c(c5oc6cccc(OCCCCN7CCN(C)CC7)c6nc-5c4c3C2=O)NC(=O)/C(C)=C\C=C\[C@H](C)[C@H](O)[C@@H](C)[C@@H](O)[C@@H](C)[C@H](OC(C)=O)[C@@H]1C [Compound 5a, (7S,9E,11S,12R,13S,14R,15R,16R,17S,18S,19E,21Z)-2,15,17-Trihydroxy-11-methoxy-3,7,12,14,16,18,22-heptamethyl-32-[4-(4-methylpiperazin-1-yl)butoxy]-6,23,37-trioxo-8,27,38-trioxa-24,34-diazahexacyclo[23.11.1.1^4,7.0^5,36.0^26,35.0^28,33]octatriaconta-1(36)2,4,9,19,21,25,28(33)29,31,34-undecaen-13-yl acetate] | 0.006 µM | 27 µM | 790 µM | > 8 µM | 3.1 | 0.092 µM | 0.77 | 0.1 µM | 87% | 47% | –
CO[C@H]1/C=C/O[C@@]2(C)Oc3c(C)c(O)c4c(=O)c(c5oc6cccc(OCCCCN7CCOCC7)c6nc-5c4c3C2=O)NC(=O)/C(C)=C\C=C\[C@H](C)[C@H](O)[C@@H](C)[C@@H](O)[C@@H](C)[C@H](OC(C)=O)[C@@H]1C [Compound 5b, (7S,9E,11S,12R,13S,14R,15R,16R,17S,18S,19E,21Z)-2,15,17-Trihydroxy-11-methoxy-3,7,12,14,16,18,22-heptamethyl-32-[4-(morpholin-4-yl)butoxy]-6,23,37-trioxo-8,27,38-trioxa-24,34-diazahexacyclo[23.11.1.1^4,7.0^5,36.0^26,35.0^28,33]octatriaconta-1(36)2,4,9,19,21,25,28(33)29,31,34-undecaen-13-yl acetate] | 0.007 µM | 65 µM | 390 µM | > 8 µM | 0.70 | 0.021 µM | 0.38 | 0.05 µM | 81% | 45% | –
CO[C@H]1/C=C/O[C@@]2(C)Oc3c(C)c(O)c4c(=O)c(c5oc6cc(N7CCN(CC(C)C)CC7)cc(OCCCCN7CCOCC7)c6nc-5c4c3C2=O)NC(=O)/C(C)=C\C=C\[C@H](C)[C@H](O)[C@@H](C)[C@@H](O)[C@@H](C)[C@H](OC(C)=O)[C@@H]1C [Compound 6a, (7S,9E,11S,12R,13S,14R,15R,16R,17S,18S,19E,21Z)-2,15,17-Trihydroxy-11-methoxy-3,7,12,14,16,18,22-heptamethyl-30-[4-(2-methylpropyl)piperazin-1-yl]-32-[4-(morpholin-4-yl)butoxy]-6,23,37-trioxo-8,27,38-trioxa-24,34-diazahexacyclo[23.11.1.1^4,7.0^5,36.0^26,35.0^28,33]octatriaconta-1(36)2,4,9,19,21,25,28(33)29,31,34-undecaen-13-yl acetate] | 0.006 µM | 39 µM | 80 µM | > 8 µM | 0.80 | 0.092 µM | – | 0.01 µM | 102% | 86% | 0.08
CO[C@H]1/C=C/O[C@@]2(C)Oc3c(C)c(O)c4c(=O)c(c5oc6cc(N7CCN(CC(C)C)CC7)cc(OCCCCN7CCN(CCn8ccnc8)CC7)c6nc-5c4c3C2=O)NC(=O)/C(C)=C\C=C\[C@H](C)[C@H](O)[C@@H](C)[C@@H](O)[C@@H](C)[C@H](OC(C)=O)[C@@H]1C [Compound 6b, (7S,9E,11S,12R,13S,14R,15R,16R,17S,18S,19E,21Z)-2,15,17-trihydroxy-32-(4-{4-[2-(1H-imidazol-1-yl)ethyl]piperazin-1-yl}butoxy)-11-methoxy-3,7,12,14,16,18,22-heptamethyl-30-[4-(2-methylpropyl)piperazin-1-yl]-6,23,37-trioxo-8,27,38-trioxa-24,34-diazahexacyclo[23.11.1.1^4,7.0^5,36.0^26,35.0^28,33]octatriaconta-1(36)2,4,9,19,21,25,28(33)29,31,34-undecaen-13-yl acetate] | 0.006 µM | 51 µM | 52 µM | > 8 µM | 1.6 | 0.021 µM | 0.23 | 0.03 µM | 120% | 57% | –
CO[C@H]1/C=C/O[C@@]2(C)Oc3c(C)c(O)c4c(=O)c(c5oc6cc(N7CCN(C)CC7)cc(OCCCCN7CCN(C(=O)Cn8ccnc8)CC7)c6nc-5c4c3C2=O)NC(=O)/C(C)=C\C=C\[C@H](C)[C@H](O)[C@@H](C)[C@@H](O)[C@@H](C)[C@H](OC(C)=O)[C@@H]1C [Compound 6c, (7S,9E,11S,12R,13S,14R,15R,16R,17S,18S,19E,21Z)-2,15,17-Trihydroxy-32-(4-{4-[2-(1H-imidazol-1-yl)acetyl]piperazin-1-yl}butoxy)-11-methoxy-3,7,12,14,16,18,22-heptamethyl-30-(4-methylpiperazin-1-yl)-6,23,37-trioxo-8,27,38-trioxa-24,34-diazahexacyclo[23.11.1.1^4,7.0^5,36.0^26,35.0^28,33]octatriaconta-1(36)2,4,9,19,21,25,28(33)29,31,34-undecaen-13-yl acetate] | 0.01 µM | 12 µM | 230 µM | 53 µM | 2.7 | 0.039 µM | 0.38 | 0.05 µM | 108% | 111% | –
CO[C@H]1/C=C/O[C@@]2(C)Oc3c(C)c(O)c4c(=O)c(c5oc6cc(N7CCN(CC(C)C)CC7)cc(OCCCCN7CCN(C(=O)Cn8ccnc8)CC7)c6nc-5c4c3C2=O)NC(=O)/C(C)=C\C=C\[C@H](C)[C@H](O)[C@@H](C)[C@@H](O)[C@@H](C)[C@H](OC(C)=O)[C@@H]1C [Compound 6d, (7S,9E,11S,12R,13S,14R,15R,16R,17S,18S,19E,21Z)-2,15,17-Trihydroxy-32-(4-{4-[2-(1H-imidazol-1-yl)acetyl]piperazin-1-yl}butoxy)-11-methoxy-3,7,12,14,16,18,22-heptamethyl-30-[4-(2-methylpropyl)piperazin-1-yl]-6,23,37-trioxo-8,27,38-trioxa-24,34-diazahexacyclo[23.11.1.1^4,7.0^5,36.0^26,35.0^28,33]octatriaconta-1(36)2,4,9,19,21,25,28,30,32,34-undecaen-13-yl acetate] | 0.008 µM | 59 µM | 93 µM | > 8 µM | 1.3 | 0.024 µM | 0.23 | 0.03 µM | 104% | 90% | –
